{"source": "patent US8076320B2", "about": "“Crystalline forms of a pharmaceutical compound” (Cephalon, Inc., priority 2004, dated 2011)", "type_in_all_cases": "physicochemical", "key": {"[1]": {"experiment": "Suspension of excess solid Compound I in solvent on a rotarmix, solid form determined by powder X-ray diffraction", "settings": "4 days, room temperature; for solid form after storage as suspension in acetonitrile (ACN): excess solid in ACN; for solid form after storage as suspension in methanol: excess solid in methanol"}, "[2]": {"experiment": "Light exposure of the solid compound in a Heraeus Suntest CPS+", "settings": "solid compound exposed to light for 14 h at 650W", "experimental": "Experiments were carried out in a Heraeus Suntest CPS+ for the crystalline forms alpha, beta and gamma where the solid compound was exposed to light for 14 h at 650W."}, "[3]": {"experiment": "Suspension of excess solid Compound I in solvent on a rotarmix, solid form determined by powder X-ray diffraction", "experimental": "In the following examples are used excess of solid Compound I, i.e. compared to the solvent the amounts of solid Compound I is such that not all the solid material comes into solution. The amounts used varied between 25-50 mg solid Compound I and 2-5 ml solvent. In the present context by “solid Compound I” is meant amorphous Compound I or any of the crystalline forms of Compound I as indicated below. • (i) Excess of amorphous Compound I was added to methanol and the resulting suspension was stored on a rotarmix for 4 days at room temperature. […] After filtration the supernatant was left for evaporation of the solvent. […] Conclusion: […]"}, "[4]": {"settings": "listed as crystalline beta form of Compound I"}, "[5]": {"settings": "listed as crystalline alpha form of Compound I"}, "[6]": {"settings": "listed as crystalline gamma form of Compound I"}}, "data": [{"smiles": "CCSCc1ccc2c(c1)c1c3c(c4c5cc(CSCC)ccc5n5c4c1n2[C@H]1C[C@](O)(C(=O)OC)[C@]5(C)O1)CNC3=O", "note": "[beta]", "values": [{"measurement": "solid form after storage as suspension in acetonitrile (ACN)", "setting": "[1]; [4]", "result": "the gamma form"}, {"measurement": "solid form after storage as suspension in methanol", "setting": "[1]; [4]", "result": "the alpha form"}]}, {"smiles": "CCSCc1ccc2c(c1)c1c3c(c4c5cc(CSCC)ccc5n5c4c1n2[C@H]1C[C@](O)(C(=O)OC)[C@]5(C)O1)CNC3=O", "note": "[amorphous substance]", "values": [{"measurement": "degradation after light treatment", "setting": "[2]", "result": "~60", "unit": "%"}, {"measurement": "solid form after storage as suspension in acetonitrile (ACN)", "setting": "[1]; listed as amorphous Compound I", "result": "the gamma form"}, {"measurement": "solid form after storage as suspension in methanol", "setting": "[1]; listed as amorphous Compound I", "result": "the alpha form"}]}, {"smiles": "CCSCc1ccc2c(c1)c1c3c(c4c5cc(CSCC)ccc5n5c4c1n2[C@H]1C[C@](O)(C(=O)OC)[C@]5(C)O1)CNC3=O", "note": "[alpha]", "values": [{"measurement": "solid form after storage as suspension in acetonitrile (ACN)", "setting": "[1]; [5]", "result": "the gamma form"}, {"measurement": "solid form after storage as suspension in methanol", "setting": "[1]; [5]", "result": "still the alpha form"}]}, {"smiles": "CCSCc1ccc2c(c1)c1c3c(c4c5cc(CSCC)ccc5n5c4c1n2[C@H]1C[C@](O)(C(=O)OC)[C@]5(C)O1)CNC3=O", "values": [{"measurement": "solid form after storage as suspension in methanol", "setting": "[3]; excess solid in methanol, rotarmix, 4 days, room temperature, powder X-ray diffraction", "result": "the major part of the solid was the gamma form"}, {"measurement": "solid form obtained on evaporation of the filtered supernatant", "setting": "[3]; methanol suspension after 4 days, filtration, supernatant left for evaporation of the solvent", "result": "the alpha form"}]}, {"smiles": "CCSCc1ccc2c(c1)c1c3c(c4c5cc(CSCC)ccc5n5c4c1n2[C@H]1C[C@](O)(C(=O)OC)[C@]5(C)O1)CNC3=O", "note": "[gamma]", "values": [{"measurement": "solid form after storage as suspension in acetonitrile (ACN)", "setting": "[1]; [6]", "result": "still the gamma form"}, {"measurement": "solid form after storage as suspension in methanol", "setting": "[1]; [6]", "result": "still the gamma form"}]}]}
